Values quoted from earlier work, collected in patent US5681568A, “Device for delivery of substances and methods of use thereof” (Cambridge NeuroScience, Inc., priority 1994, dated 1997).

Experiments:
[1] = in vivo
nerve regeneration = settings: in vivo
[2] = presence of heparin
[3] = test system: experimental cerebral ischemia; settings: after experimental cerebral ischemia, rabbit
[4] = test system: hypoxic/ischemic brain injury; settings: rat

Q: Which toxic side effects [1] does the source give for `CSCC[C@@H]1NC(=O)[C@H](CC(C)C)NC(=O)[C@H](CCCNC(=N)N)NC(=O)[C@H](CO)NC(=O)[C@@H]2CSSC[C@@H]3NC(=O)[C@H](CO)NC(=O)CNC(=O)[C@H]([C@@H](C)O)NC(=O)[C@H](CSSC[C@H](N)C(=O)N[C@@H](CCCCN)C(=O)NCC(=O)N[C@@H](CCCCN)C(=O)NCC(=O)N[C@@H](C)C(=O)N[C@@H](CCCCN)C(=O)N2)NC(=O)[C@H](CSSC[C@@H](C(N)=O)NC(=O)[C@H](CCCCN)NC(=O)CNC(=O)[C@H](CO)NC(=O)[C@H](CCCNC(=N)N)NC3=O)NC(=O)[C@H](CC(=O)O)NC(=O)[C@H](Cc2ccc(O)cc2)NC1=O` [SNX111] here?
A: Its toxic side effects is “severe hypotension”.

Q: With bFGF: Basic fibroblast growth factor as the compound, how does the “effect on nerve regeneration” value (nerve regeneration) read?
A: The value was “therapeutic relevant effect on nerve regeneration”.

Q: For “acidic FGF: member of the fibroblast growth factor (FGF) family known to associate with heparin”, which “effect of heparin on the factor's activity” value [2] is on record?
A: The value was “can potentiate the factor's activity”.

Q: Which results are given for TGFβ1: Transforming growth factor β1?
A: effect on infarct size [3]: reduce infarct size; effects in models of hypoxic/ischemic brain injury [4]: therapeutically relevant effects

Q: Which “effects in models of hypoxic/ischemic brain injury” value [4] does the source give for “IGF-1: insulin-like growth factors (IGFs)” here?
A: Its value is “therapeutically relevant effects”.
